Laboratory results as given in patent US10285989B2, “Pyrimidinone amide compounds as PDE2 inhibitors” (Merck Sharp & Dohme Corp., priority 2015, dated 2019).
Read-outs that look alike come from different tables or passages of the source.

Legend:
[1] = biological target: Rhesus PDE2A3 (Macaca mulatta, UniProt B3VTJ2); test: PDE2 fluorescence polarization (IMAP FP) inhibition assay, rhesus PDE2A3; type: biochemical, rhesus macaque
Description: A Labcyte Echo 555 (Labcyte, Sunnyvale, Calif.) is used to dispense 200 nL from each well of the titration plate to the 384 well assay plate. Ten microliters of a solution of enzyme (1/2000 final dilution from aliquots; sufficient to produce 20% substrate conversion) was added to the assay plate. Next 10 uL of a separate solution of the substrate FAM-labeled cAMP (50 nM final concentration product # R^7506 from Molecular Devices) and the activator cGMP (1 uM final concentration), prepared in the assay buffer (10 mM Tris HCl, pH 7.2, 10 mM MgCl2, 0.05% NaN3 0.01% Tween-20, and 1 mM DTT) was added to the assay plate and shaken to mix. The reaction is allowed to proceed at room temperature for 60 minutes. A binding solution is then made from the kit components, comprised of 80% Solution A, 20% Solution B and binding reagent at a volume of 1/600 the total binding solution. The enzymatic reaction is stopped by addition of 60 μL of the binding solution to each well of the assay plates and the plates are sealed and shaken for 30 seconds. The plate was incubated at room temperature for at least one hour prior to determining the fluorescence polarization (FP). The parallel and perpendicular fluorescence of each well of the plate was measured using a Tecan Genios Pro plate reader (Tecan, Switzerland) or Perkin Elmer EnVision™ plate reader (Waltham, Mass.). Fluorescence polarization (mP) was calculated from the parallel (S) and perpendicular (P) fluorescence of each sample well and the analogous values for the median control well, containing only substrate (So and Po), using the following equation: Polarization (mP)=1000*(S/So−P/Po)/(S/So+P/Po).
Dose-inhibition profiles for each compound were characterized by fitting the mP data to a four-parameter equation given below.
An apparent (KM) for FAM-labeled cAMP of ˜10 uM was used.

[2] = biological target: P-glycoprotein (P-gp) (Homo sapiens (Human), UniProt P08183); test: P-gp transport, experimental BA/AB ratio, human; type: in vitro ADME; conditions: LLC-PK1, 1 μM substrate concentration
Description: (§1) See Doan et al. “Passive permeability and P-glycoprotein-mediated efflux differentiate central nervous system (CNS) and non-CNS marketed drugs”, J. Pharm. Exper. […] Desirable human BA/AB ratio is less than 2.0. […] See, for example, Desai, et al. Integration of in Silico and in Vitro Tools for Scaffold Optimization during Drug Discovery: Predicting P-glycoprotein Efflux” Mol. Pharmac.

[3] = biological target: human PDE2A1 (Homo sapiens (Human), UniProt O00408); test: PDE2 IMAP FP inhibition assay, human PDE2A1 (selectivity panel format); type: biochemical
Method in brief: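 Enzyme dosed to give about 20% substrate turnover acts for 60 min at room temperature on 50 nM FAM-cAMP plus 1000 nM cGMP (Tris pH 7.2, MgCl2, DTT, Tween-20 buffer). IMAP binding solution then stops the reaction; after 1 h, polarization is measured from parallel and perpendicular fluorescence.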

[4] = biological target: P-glycoprotein (P-gp, rat Mdr1a) (Rattus norvegicus, UniProt Q6PSM0); test: P-gp transport, experimental BA/AB ratio, rat LLC-Mdr1a; type: in vitro ADME; conditions: LLC-PK1; rat LLC-Mdrla; 1 μM substrate concentration
Description: as §1

[5] = Lab B, read-out: Rhesus PDE2 Ki (nM) - Lab B
[6] = Lab B, read-out: Human PDE2 Ki (nM) - Lab B
[7] = Lab A, read-out: Rhesus PDE2 Ki (nM) - Lab A
[8] = Lab A, read-out: Human PDE2 Ki (nM) - Lab A

human PDE2A1, sequence (O00408 other isoform, or with tags, fused parts or gaps): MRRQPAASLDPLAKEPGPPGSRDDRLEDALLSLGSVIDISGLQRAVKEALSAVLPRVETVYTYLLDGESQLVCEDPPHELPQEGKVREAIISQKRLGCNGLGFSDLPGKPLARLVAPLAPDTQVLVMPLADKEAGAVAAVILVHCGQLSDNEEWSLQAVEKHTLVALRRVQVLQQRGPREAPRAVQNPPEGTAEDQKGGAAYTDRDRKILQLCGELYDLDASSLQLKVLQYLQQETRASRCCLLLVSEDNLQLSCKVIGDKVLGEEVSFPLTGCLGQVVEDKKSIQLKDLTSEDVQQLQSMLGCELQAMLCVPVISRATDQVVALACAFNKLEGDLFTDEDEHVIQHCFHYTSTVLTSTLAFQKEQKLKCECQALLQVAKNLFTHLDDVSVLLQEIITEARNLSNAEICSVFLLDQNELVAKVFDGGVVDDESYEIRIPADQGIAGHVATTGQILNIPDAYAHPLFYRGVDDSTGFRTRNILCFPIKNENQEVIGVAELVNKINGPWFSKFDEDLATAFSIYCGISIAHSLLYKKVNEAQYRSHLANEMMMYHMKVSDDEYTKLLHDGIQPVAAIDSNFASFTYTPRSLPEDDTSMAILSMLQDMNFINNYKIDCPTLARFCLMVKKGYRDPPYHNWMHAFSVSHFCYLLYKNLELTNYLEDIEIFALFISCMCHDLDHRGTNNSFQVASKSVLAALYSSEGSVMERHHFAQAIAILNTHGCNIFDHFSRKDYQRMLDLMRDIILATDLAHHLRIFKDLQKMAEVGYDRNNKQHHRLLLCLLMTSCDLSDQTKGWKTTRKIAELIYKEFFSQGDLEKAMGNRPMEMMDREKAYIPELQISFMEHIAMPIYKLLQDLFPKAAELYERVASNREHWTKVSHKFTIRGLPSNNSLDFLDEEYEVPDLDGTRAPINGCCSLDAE
Rhesus PDE2A3, sequence (B3VTJ2 1-941): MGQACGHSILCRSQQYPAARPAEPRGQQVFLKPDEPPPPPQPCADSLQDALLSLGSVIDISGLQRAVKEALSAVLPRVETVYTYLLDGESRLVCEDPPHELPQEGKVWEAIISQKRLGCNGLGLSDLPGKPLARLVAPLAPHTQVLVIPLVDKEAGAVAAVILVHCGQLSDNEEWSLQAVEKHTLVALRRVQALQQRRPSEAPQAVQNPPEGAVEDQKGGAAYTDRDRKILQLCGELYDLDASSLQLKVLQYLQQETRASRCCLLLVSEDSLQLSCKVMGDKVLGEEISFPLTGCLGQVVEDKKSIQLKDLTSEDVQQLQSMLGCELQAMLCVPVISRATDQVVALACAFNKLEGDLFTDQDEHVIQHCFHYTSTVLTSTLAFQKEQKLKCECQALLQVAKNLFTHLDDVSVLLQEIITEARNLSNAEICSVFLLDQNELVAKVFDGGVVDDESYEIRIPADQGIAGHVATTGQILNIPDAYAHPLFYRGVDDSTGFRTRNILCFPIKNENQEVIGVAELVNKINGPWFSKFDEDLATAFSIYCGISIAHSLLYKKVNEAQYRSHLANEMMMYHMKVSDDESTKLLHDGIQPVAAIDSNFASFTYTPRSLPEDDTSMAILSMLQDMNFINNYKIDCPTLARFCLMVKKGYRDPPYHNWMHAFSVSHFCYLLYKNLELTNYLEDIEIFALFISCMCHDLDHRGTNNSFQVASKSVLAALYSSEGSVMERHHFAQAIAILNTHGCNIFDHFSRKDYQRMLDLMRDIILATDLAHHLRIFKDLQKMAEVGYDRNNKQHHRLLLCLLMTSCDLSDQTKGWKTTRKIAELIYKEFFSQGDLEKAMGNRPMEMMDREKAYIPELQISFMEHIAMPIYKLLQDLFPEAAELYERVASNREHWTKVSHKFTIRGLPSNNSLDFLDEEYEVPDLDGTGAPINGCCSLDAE
P-glycoprotein (P-gp), sequence (P08183 whole entry): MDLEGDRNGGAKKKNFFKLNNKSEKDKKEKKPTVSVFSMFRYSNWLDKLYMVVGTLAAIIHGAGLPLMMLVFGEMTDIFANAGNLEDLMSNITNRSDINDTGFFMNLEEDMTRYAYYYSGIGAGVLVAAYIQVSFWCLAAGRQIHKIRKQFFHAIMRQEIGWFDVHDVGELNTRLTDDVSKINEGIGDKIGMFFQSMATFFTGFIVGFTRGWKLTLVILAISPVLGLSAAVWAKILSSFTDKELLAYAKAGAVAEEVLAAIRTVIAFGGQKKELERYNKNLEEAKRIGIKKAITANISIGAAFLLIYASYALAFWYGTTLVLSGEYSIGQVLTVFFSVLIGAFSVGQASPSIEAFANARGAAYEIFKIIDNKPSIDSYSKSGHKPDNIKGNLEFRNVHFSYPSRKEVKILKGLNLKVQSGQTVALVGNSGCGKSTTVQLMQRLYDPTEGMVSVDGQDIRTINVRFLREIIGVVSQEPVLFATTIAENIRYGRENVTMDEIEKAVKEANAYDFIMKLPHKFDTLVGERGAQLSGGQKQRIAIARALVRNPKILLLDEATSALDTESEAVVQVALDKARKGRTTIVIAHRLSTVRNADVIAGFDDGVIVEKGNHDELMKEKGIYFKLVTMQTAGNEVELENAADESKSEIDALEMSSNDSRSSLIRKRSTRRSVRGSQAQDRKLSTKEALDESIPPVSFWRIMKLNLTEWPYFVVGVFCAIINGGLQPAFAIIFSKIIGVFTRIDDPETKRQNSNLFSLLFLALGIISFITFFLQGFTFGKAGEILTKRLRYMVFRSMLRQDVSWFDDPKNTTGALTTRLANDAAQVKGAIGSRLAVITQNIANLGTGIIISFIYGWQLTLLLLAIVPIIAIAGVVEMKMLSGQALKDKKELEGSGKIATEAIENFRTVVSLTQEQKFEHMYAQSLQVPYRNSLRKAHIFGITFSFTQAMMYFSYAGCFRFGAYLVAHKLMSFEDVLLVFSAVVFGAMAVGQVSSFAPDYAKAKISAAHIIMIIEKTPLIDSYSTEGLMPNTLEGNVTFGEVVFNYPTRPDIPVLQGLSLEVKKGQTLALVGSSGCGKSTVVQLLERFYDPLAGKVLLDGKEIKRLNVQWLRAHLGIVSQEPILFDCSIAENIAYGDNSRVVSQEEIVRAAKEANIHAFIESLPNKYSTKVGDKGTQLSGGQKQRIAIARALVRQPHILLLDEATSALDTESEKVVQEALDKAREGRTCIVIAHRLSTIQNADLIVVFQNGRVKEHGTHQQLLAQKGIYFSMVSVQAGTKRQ
P-glycoprotein (P-gp, rat Mdr1a), sequence (Q6PSM0 1-1272): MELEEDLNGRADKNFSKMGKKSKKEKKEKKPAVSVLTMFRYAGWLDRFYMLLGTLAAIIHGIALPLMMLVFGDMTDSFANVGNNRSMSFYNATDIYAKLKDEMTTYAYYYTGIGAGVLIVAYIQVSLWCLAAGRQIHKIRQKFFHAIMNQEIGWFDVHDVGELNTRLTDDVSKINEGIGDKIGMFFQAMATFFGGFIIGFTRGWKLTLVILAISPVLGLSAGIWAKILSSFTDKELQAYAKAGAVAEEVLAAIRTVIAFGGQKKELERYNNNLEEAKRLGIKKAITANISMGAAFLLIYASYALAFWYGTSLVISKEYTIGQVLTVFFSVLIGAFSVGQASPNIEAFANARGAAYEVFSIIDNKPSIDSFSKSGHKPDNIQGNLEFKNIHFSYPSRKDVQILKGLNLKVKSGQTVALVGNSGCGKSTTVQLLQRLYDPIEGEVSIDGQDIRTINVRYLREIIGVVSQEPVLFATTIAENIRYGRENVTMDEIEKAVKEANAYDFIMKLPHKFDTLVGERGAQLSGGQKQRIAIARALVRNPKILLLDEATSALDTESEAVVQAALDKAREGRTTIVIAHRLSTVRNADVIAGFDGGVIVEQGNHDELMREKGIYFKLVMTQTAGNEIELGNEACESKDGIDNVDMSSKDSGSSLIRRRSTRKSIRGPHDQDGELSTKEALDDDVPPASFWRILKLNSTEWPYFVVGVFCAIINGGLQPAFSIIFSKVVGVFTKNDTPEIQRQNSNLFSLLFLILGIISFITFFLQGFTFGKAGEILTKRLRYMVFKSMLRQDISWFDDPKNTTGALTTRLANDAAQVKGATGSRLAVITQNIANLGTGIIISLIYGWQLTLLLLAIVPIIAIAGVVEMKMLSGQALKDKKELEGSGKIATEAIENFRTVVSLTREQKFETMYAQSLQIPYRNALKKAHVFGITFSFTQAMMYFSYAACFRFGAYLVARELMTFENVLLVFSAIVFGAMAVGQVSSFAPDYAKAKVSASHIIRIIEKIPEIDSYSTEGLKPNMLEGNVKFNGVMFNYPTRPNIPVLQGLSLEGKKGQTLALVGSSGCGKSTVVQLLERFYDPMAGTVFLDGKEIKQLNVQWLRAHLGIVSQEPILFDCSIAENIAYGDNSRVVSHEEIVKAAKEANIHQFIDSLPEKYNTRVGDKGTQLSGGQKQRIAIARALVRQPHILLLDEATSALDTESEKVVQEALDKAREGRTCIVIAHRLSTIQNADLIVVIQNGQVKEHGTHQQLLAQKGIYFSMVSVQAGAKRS

SMILES	Ki [1, 5] [nM]	efflux ratio at 1 μM [2]	Ki [3, 6] [nM]	efflux ratio at 1 μM [4]	Ki [1, 7] [nM]	Ki [3, 8] [nM]
CN(C)c1nc(C(=O)NC(c2ccc(S(F)(F)(F)(F)F)cc2F)C(C)(C)C)cc(=O)[nH]1 (single isomer, unassigned) [Example 128, (R)- or (S)-2-(dimethylamino)-N-{1-[2-fluoro-4-(pentafluoro-λ^6-sulfanyl)phenyl]-2,2-dimethylpropyl}-6-oxo-1,6-dihydropyrimidine-4-carboxamide]	0.22	1.4	0.15	4.8		
CCC(C)(NC(=O)c1cc(=O)[nH]c(N(C)C)n1)c1ccc(C(F)(F)F)cc1F (single isomer, unassigned) [Example 130, (R)- or (S)-2-(dimethylamino)-N-{1-[2-fluoro-4-(trifluoromethyl)phenyl]-1-methylpropyl}-6-oxo-1,6-dihydro-pyrimidine-4-carboxamide]	1.2	0.6	0.89	1.3		
COCC1CCN(c2nc(C(=O)N[C@@H](c3ccc(C(F)(F)F)cc3)C(C)(C)C)cc(=O)[nH]2)C1 (single isomer, unassigned) [Example 176, (R)- or (S)-N-{(1R)-2,2-dimethyl-1-[4-(trifluoromethyl)phenyl]propyl}-2-[3-(methoxy-methyl)pyrrolidin-1-yl]-6-oxo-1,6-dihydro-pyrimidine-4-carboxamide]		5.4	0.38	19.1		
CC(C)[C@@H](NC(=O)c1cc(=O)[nH]c(N(C)C)n1)c1ccc(OC(F)(F)F)c(F)c1 [Example 149, 2-(dimethylamino)-N-{(1R)-1-[3-fluoro-4-(trifluoro-methoxy)phenyl]-2-methylpropyl}-6-oxo-1,6-dihydropyrimidine-4-carboxamide]	0.51		0.42		0.48	
CC(C)(C)[C@@H](NC(=O)c1cc(=O)[nH]c(N)n1)c1ccc(C(F)(F)F)cc1 [Example 157, 2-amino-N-{(1R)-2,2-dimethyl-1-[4-(trifluoromethyl)phenyl]propyl}-6-oxo-1,6-dihydropyrimidine-4-carboxamide]		13.9	6.3	34		
CNc1nc(C(=O)N[C@@H](c2ccc(C(F)(F)F)cc2)C(C)(C)C)cc(=O)[nH]1 [Example 158, N-{(1R)-2,2-dimethyl-1-[4-(trifluoromethyl)phenyl]propyl}-2-(methylamino)-6-oxo-1,6-dihydropyrimidine-4-carboxamide]		7.8	0.85	24.4		
Cc1ncc2c(n1)CN(c1nc(C(=O)N[C@H](C)c3ccc(C(F)(F)F)cc3)cc(=O)[nH]1)C2 [Example 159, 2-(2-methyl-5,7-dihydro-6H-pyrrolo[3,4-d]pyrimidin-6-yl)-6-oxo-N-{(1R)-1-[4-(trifluoromethyl)phenyl]ethyl}-1,6-dihydropyrimidine-4-carboxamide]					18	11
CO[C@H]1CCN(c2nc(C(=O)N[C@@H](c3ccc(C(F)(F)F)cc3)C(C)(C)C)cc(=O)[nH]2)C1 [Example 170, N-{(1R)-2,2-dimethyl-1-[4-(trifluoromethyl)phenyl]propyl}-2-[(3S)-3-methoxypyrrolidin-1-yl]-6-oxo-1,6-dihydropyrimidine-4-carboxamide]		5.6	0.11	10.7		
CO[C@@H]1CCN(c2nc(C(=O)N[C@@H](c3ccc(C(F)(F)F)cc3)C(C)(C)C)cc(=O)[nH]2)C1 [Example 171, N-{(1R)-2,2-dimethyl-1-[4-(trifluoromethyl)phenyl]propyl}-2-[(3R)-3-methoxypyrrolidin-1-yl]-6-oxo-1,6-dihydropyrimidine-4-carboxamide]		3.1	1.4	24.4		
COCCCOc1nc(C(=O)NC(C)c2ccc(C(F)(F)F)cc2)cc(=O)[nH]1 (stereo not shown) [Example 179, 2-(3-methoxypropoxy)-6-oxo-N-{1-[4-(trifluoromethyl)phenyl]ethyl}-1,6-dihydropyrimidine-4-carboxamide]					108	75

Next, values leading:

Ki [1, 5] [nM]	efflux ratio at 1 μM [2]	Ki [3, 6] [nM]	efflux ratio at 1 μM [4]	Ki [1, 7] [nM]	Ki [3, 8] [nM]	SMILES
1.8	27.3	1.9	47.2			CN(C)c1nc(C(=O)NC(c2ccc(SC(F)(F)F)c(F)c2)C2(C)CC2)cc(=O)[nH]1 (single isomer, unassigned) [Example 120, (R)- or (S)-2-(dimethylamino)-N-[{3-fluoro-4-[(trifluoromethyl)sulfanyl]phenyl}(1-methylcyclopropyl)methyl]-6-oxo-1,6-dihydropyrimidine-4-carboxamide]
6.4	1.1	5.3				CN(C)c1nc(C(=O)N[C@@H](c2ccc(OC(F)F)cc2)C2CC2)cc(=O)[nH]1 [Example 32, N-{(R)-cyclopropyl[4-(difluoromethoxy)phenyl]methyl}-2-(dimethylamino)-6-oxo-1,6-dropyrimidine-4-carboxamide]
2.7	1.3	2				CC(C)[C@@H](NC(=O)c1cc(=O)[nH]c(N(C)C)n1)c1ccc(OC(F)F)cc1 [Example 33, N-{(1R)-1-[4-(difluoromethoxy)phenyl]-2-methylpropyl}-2-(dimethylamino)-6-oxo-1,6-dihydropyrimidine-4-carboxamide]
0.11	1	0.14				CN(C)c1nc(C(=O)N[C@@H](c2ccc(S(F)(F)(F)(F)F)cc2)C(C)(C)C)cc(=O)[nH]1 [Example 38, 2-(dimethylamino)-N-{(1R)-2,2-dimethyl-1-[4-(pentafluoro-λ^6-sulfanyl)phenyl]propyl}-6-oxo-1,6-dihydropyrimidine-4-carboxamide]
	0.8	2	4.2			CN(C)c1nc(C(=O)N[C@@H](c2ccc(C(F)F)c(F)c2)C2(C)CC2)cc(=O)[nH]1 [Example 59, N-[(R)-[4-(difluoromethyl)-3-fluorophenyl](1-methylcyclopropyl)methyl]-2-(dimethylamino)-6-oxo-1,6-dihydropyrimidine-4-carboxamide]
	1.7	1.9	10.2			CC(C)[C@@H](NC(=O)c1cc(=O)[nH]c(N(C)C)n1)c1ccc(C(F)F)cc1 [Example 63, N-{(1R)-1-[4-(difluoromethyl)phenyl]-2-methylpropyl}-2-(dimethylamino)-6-oxo-1,6-dihydropyrimidine-4-carboxamide]
	0.8	7.4	5.6			CN(C)c1nc(C(=O)N[C@@H](c2ccc(C(F)F)cc2)C2CC2)cc(=O)[nH]1 [Example 64, N-{(R)-cyclopropyl[4-(difluoromethyl)phenyl]methyl}-2-(dimethylamino)-6-oxo-1,6-dihydropyrimidine-4-carboxamide]
	0.8	5	6.1			CN(C)c1nc(C(=O)N[C@@H](c2ccc(C(F)F)c(F)c2)C2CC2)cc(=O)[nH]1 [Example 66, N-{(R)-cyclopropyl[4-(difluoromethyl)-3-fluorophenyl]methyl}-2-(dimethylamino)-6-oxo-1,6-dihydropyrimidine-4-carboxamide]
1	0.3	0.76				CN(C)c1nc(C(=O)N[C@@H](c2ccc(C3CC3)cc2)C2CC2)cc(=O)[nH]1 [Example 115, N-[(R)-cyclopropyl(4-cyclopropylphenyl)methyl]-2-(dimethylamino)-6-oxo-1,6-dihydropyrimidine-4-carboxamide]
